The results in this text go back to patent US12404250B2, “PARP inhibitors for treating cancer and asthma” (Oregon Health & Science University, priority 2018, dated 2025).

Where only a bound is given, the exact number is not on record here.

In general, IC50 refers to the concentration at which inhibition is half-maximal. Read a high IC50 as lower potency.

One experiment addresses T1, PARP4 Brct-cat (Homo sapiens, UniProt Q9UKK3).
T1 construct: PARP4 Brct-cat
T1 sequence (Q9UKK3 1-573 limits assumed): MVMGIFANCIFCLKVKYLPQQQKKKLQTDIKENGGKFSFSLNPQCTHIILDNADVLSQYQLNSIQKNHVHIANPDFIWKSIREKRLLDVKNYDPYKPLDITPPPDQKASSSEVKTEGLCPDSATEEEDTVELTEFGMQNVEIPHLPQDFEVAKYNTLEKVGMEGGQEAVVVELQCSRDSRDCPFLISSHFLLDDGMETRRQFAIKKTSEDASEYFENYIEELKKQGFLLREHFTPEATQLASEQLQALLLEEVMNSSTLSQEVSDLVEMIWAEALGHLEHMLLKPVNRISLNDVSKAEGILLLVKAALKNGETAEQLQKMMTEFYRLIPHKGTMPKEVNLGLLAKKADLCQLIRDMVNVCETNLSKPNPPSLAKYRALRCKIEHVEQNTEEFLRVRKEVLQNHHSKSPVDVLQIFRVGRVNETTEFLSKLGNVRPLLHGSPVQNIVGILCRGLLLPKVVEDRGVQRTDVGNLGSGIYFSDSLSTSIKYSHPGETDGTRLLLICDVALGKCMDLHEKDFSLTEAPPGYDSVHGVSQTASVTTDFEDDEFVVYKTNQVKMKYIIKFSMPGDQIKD
Nature of the experiment: In vitro IC50, PARP4 Brct-cat. It is filed as biochemical. The settings on record: SEM from a minimum of three dose-response experiments.

Another experiment addresses T2, PARP6 (Homo sapiens, UniProt Q2NL67).
T2 construct: expressed in transfected cells; host or cells: HEK 293T
The experiment is described as follows: In vitro IC50, immunoprecipitated GFP-PARP6 auto-MARylation. The format is biochemical.

The next experiment deals with T3, PARP10cat (Homo sapiens, UniProt Q53GL7).
T3 construct: bcat; cat; PARP11
T3 sequence (Q53GL7 806-1025 limits assumed): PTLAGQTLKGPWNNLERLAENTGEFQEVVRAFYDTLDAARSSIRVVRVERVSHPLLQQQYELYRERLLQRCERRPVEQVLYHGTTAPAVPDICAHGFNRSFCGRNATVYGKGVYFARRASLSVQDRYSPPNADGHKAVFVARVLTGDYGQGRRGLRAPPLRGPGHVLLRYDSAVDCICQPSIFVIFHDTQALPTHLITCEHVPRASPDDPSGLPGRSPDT
Nature of the experiment: In vitro IC50, PARP10cat. The settings on record: SEM from a minimum of three dose-response experiments. It is filed as biochemical.

The next experiment has as its target T4, PARP11 (Homo sapiens, UniProt Q9NR21).
T4 sequence (Q9NR21 1-338): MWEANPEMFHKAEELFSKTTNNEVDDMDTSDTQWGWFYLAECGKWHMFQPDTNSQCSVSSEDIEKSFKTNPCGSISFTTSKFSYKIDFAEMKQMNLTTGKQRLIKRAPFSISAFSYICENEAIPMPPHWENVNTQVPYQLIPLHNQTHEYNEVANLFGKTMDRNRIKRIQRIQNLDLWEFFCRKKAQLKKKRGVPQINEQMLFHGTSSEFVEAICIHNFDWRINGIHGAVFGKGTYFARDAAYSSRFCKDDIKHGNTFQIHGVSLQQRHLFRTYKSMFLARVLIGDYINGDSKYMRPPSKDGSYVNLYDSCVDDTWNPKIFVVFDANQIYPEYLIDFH
The experiment is described as follows: In vitro IC50, PARP11 (plate assay, MARylation of SRPK2 and NXF1). It is filed as biochemical. To be noted: SEM from a minimum of three dose-response experiments. The text has this: Curves generated using Prism 7 (Graph Pad); error bars indicate ±SEM from at least two replicates.

For another experiment, the target named is T5, PARP10 (Homo sapiens, UniProt Q53GL7).
T5 sequence (Q53GL7 1-1025): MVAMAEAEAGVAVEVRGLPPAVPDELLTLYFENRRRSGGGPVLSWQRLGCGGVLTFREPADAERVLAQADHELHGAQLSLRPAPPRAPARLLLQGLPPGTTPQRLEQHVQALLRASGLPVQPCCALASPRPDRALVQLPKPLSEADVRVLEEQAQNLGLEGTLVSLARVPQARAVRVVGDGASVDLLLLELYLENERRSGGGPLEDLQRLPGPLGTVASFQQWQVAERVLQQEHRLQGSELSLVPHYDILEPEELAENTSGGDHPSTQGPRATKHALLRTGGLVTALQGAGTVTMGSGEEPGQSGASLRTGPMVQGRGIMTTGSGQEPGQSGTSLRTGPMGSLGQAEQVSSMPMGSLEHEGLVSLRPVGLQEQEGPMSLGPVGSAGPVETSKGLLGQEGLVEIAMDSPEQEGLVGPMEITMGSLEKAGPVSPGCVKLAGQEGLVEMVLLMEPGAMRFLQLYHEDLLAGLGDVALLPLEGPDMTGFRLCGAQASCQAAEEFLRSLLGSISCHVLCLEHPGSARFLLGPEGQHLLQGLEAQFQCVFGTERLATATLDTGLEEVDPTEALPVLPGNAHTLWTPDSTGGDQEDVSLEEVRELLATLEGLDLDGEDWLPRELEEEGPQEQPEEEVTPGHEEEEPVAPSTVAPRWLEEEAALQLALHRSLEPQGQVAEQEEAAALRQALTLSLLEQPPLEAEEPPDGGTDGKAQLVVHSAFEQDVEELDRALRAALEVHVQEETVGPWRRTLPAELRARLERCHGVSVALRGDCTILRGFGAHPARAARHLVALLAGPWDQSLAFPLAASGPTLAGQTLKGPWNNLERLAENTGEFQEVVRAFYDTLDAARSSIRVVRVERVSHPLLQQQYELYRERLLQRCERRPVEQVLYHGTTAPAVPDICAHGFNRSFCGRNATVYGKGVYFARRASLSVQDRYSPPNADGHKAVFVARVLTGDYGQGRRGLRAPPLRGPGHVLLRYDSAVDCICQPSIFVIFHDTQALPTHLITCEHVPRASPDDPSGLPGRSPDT
The experiment is described as follows: GFP-PARP10 auto-MARylation in HEK 293T cells (Western blot). The settings on record: for Inhibition of PARP10 auto-MARylation in cells at 3 μM: HEK 293T cells transfected with GFP-PARP10, 3 μM for 3 h. (In general: A western blot detects proteins with antibodies after separation by electrophoresis.)

T2 sequence (Q2NL67 whole entry): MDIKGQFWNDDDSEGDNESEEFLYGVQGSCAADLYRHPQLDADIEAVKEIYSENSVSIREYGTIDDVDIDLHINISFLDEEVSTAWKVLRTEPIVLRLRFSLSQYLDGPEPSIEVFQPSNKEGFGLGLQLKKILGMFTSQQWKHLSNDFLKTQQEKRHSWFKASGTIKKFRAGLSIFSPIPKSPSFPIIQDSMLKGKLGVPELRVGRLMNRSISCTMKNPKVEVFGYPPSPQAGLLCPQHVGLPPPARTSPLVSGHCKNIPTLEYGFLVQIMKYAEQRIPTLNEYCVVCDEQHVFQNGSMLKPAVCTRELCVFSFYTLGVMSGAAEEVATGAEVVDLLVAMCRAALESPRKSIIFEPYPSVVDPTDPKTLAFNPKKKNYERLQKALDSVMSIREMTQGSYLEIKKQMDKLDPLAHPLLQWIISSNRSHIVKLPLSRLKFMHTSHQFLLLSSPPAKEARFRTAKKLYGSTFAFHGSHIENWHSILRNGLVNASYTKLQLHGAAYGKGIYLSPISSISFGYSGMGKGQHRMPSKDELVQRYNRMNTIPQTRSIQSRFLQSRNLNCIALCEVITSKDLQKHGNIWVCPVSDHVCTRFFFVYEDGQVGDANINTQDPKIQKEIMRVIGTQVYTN
Protocol for PARP6: Auto-MARylation was analyzed by Western blot with an ADP-ribose (ADPr) binding reagent (uncropped blots shown below).

For `CC#Cc1ccc2c(=O)[nH]c(CSc3ncccn3)nc2c1C` [ITK7, 8-methyl-7-(prop-1-yn-1-yl)-2-((pyrimidin-2-ylthio)methyl)quinazolin-4(3H)-one], the IC50 on PARP4 Brct-cat was greater than 30000 nM; against PARP6, greater than 3000 nM; against PARP10cat, 9280 ± 1570 nM; against PARP11, 14 ± 3 nM. For the same compound, the “Inhibition of PARP10 auto-MARylation in cells at 3 μM” value at PARP10 is given as “does not inhibit PARP10”.
Consider `CC#Cc1ccc2c(=O)[nH]c(CSc3ccc(C(=O)O)cc3)nc2c1C` [ITK6, 4-(((8-methyl-4-oxo-7-(prop-1-yn-1-yl)-3,4-dihydroquinazolin-2-yl)methyl)thio) benzoic acid], for which the IC50 is greater than 30000 nM against PARP4 Brct-cat, greater than 3000 nM on PARP6, 156 ± 18 nM on PARP10cat and 99 ± 16 nM at PARP11. Further, at PARP10, the “Inhibition of PARP10 auto-MARylation in cells at 3 μM” value is on record as “inhibits PARP10 auto-MARylation in cells”. Also, the “Inhibition of PARP10 auto-MARylation in cells, dose response” value on PARP10 (HEK 293T cells transfected with GFP-PARP10, increasing concentrations for 90 min) was “inhibits PARP10 auto-MARylation in cells in a dose dependent manner”.
